From BindingDB's records for doi:10.1021/jm990266k (Warner-Lambert, 1999)

Assay: Compound was tested for the inhibition of [3H]-thymidine uptake in CHO p-5 cells transfected with human Dopamine receptor D4.2

Structure (SMILES)	IC50
Cc1ccc(N2CCN(Cc3ccc4oc(=O)ccc4c3)CC2)cc1 [6-(4-p-Tolyl-piperazin-1-ylmethyl)-chromen-2-one]	> 1000 nM
Cc1ccc(N2CCN(Cc3ccc4ccc(=O)oc4c3)CC2)cc1Cl [7-[4-(3-Chloro-4-methyl-phenyl)-piperazin-1-ylmethyl]-chromen-2-one]	5.4 nM
